Columns and labels:
[1] = target: AP2-associated protein kinase 1 (Homo sapiens) (UniProt Q2M2I8); test: AAK1(h) Kinase panel; details: Compound concentration 1.0 uM, tested as the 2H-labelled form
[2] = target: Tyrosine-protein kinase ABL2 (Homo sapiens) (UniProt P42684); test: Arg(h) Kinase panel; details: Compound concentration 1.0 uM, tested as the 2H-labelled form
[3] = target: Aurora kinase A (Homo sapiens) (UniProt O14965); test: Aurora-A(h) Kinase panel; details: Compound concentration 1.0 uM, tested as the 2H-labelled form
[4] = target: Cyclin-dependent kinase 18 (Homo sapiens) (UniProt Q07002); test: CDK18/cyclinY(h) Kinase panel; details: Compound concentration 1.0 uM, tested as the 2H-labelled form
[5] = target: Serine/threonine-protein kinase Chk1 (Homo sapiens) (UniProt O14757); test: CHK1(h) Kinase panel; details: Compound concentration 1.0 uM, tested as the 2H-labelled form
[6] = target: Casein kinase I isoform alpha (Homo sapiens, UniProt P48729); test: CK1alpha(h) Kinase panel; details: Compound concentration 1.0 uM, tested as the 2H-labelled form
[7] = target: RAF proto-oncogene serine/threonine-protein kinase (Homo sapiens) (UniProt P04049); test: c-RAF(h) Kinase panel; details: Compound concentration 1.0 uM, tested as the 2H-labelled form
[8] = target: Proto-oncogene tyrosine-protein kinase Src (Homo sapiens) (UniProt P12931); test: cSRC(h) Kinase panel; details: Compound concentration 1.0 uM, tested as the 2H-labelled form
[9] = target: Serine/threonine-protein kinase 17A (Homo sapiens) (UniProt Q9UEE5); test: DRAK1(h) Kinase panel; details: Compound concentration 1.0 uM, tested as the 2H-labelled form
[10] = target: Dual specificity tyrosine-phosphorylation-regulated kinase 1A (Homo sapiens) (UniProt Q13627); test: DYRK1A(h) Kinase panel; details: Compound concentration 1.0 uM, tested as the 2H-labelled form
[11] = target: Dual specificity tyrosine-phosphorylation-regulated kinase 2 (Homo sapiens) (UniProt Q92630); test: DYRK2(h) Kinase panel; details: Compound concentration 1.0 uM, tested as the 2H-labelled form
[12] = target: Ephrin type-B receptor 2 (Homo sapiens) (UniProt P29323); test: EphB2(h) Kinase panel; details: Compound concentration 1.0 uM, tested as the 2H-labelled form
[13] = target: Ephrin type-B receptor 1 (Homo sapiens) (UniProt P54762); test: EphB1(h) Kinase panel; details: Compound concentration 1.0 uM, tested as the 2H-labelled form
[14] = target: Tyrosine-protein kinase Fer (Homo sapiens) (UniProt P16591); test: Fer(h) Kinase panel; details: Compound concentration 1.0 uM, tested as the 2H-labelled form
[15] = target: Tyrosine-protein kinase Fes/Fps (Homo sapiens) (UniProt P07332); test: Fes(h) Kinase panel; details: Compound concentration 1.0 uM, tested as the 2H-labelled form
[16] = target: Macrophage colony-stimulating factor 1 receptor (Homo sapiens, UniProt P07333); test: Fms(h) Kinase panel; details: Compound concentration 1.0 uM, tested as the 2H-labelled form
[17] = target: G protein-coupled receptor kinase 6 (Homo sapiens) (UniProt P43250); test: GRK6(h) Kinase panel; details: Compound concentration 1.0 uM, tested as the 2H-labelled form
[18] = target: Serine/threonine-protein kinase haspin (Homo sapiens) (UniProt Q8TF76); test: Haspin(h) Kinase panel; details: Compound concentration 1.0 uM, tested as the 2H-labelled form
[19] = target: Tyrosine-protein kinase HCK (Homo sapiens) (UniProt P08631); test: Hck(h) activated Kinase panel; details: Compound concentration 1.0 uM, tested as the 2H-labelled form
[20] = target: LIM domain kinase 2 (Homo sapiens) (UniProt P53671); test: LIMK2(h) Kinase panel; details: Compound concentration 1.0 uM, tested as the 2H-labelled form
[21] = target: Mitogen-activated protein kinase kinase kinase 2 (Homo sapiens) (UniProt Q9Y2U5); test: MEKK2(h) Kinase panel; details: Compound concentration 1.0 uM, tested as the 2H-labelled form
[22] = target: MAP kinase-interacting serine/threonine-protein kinase 2 (Homo sapiens) (UniProt Q9HBH9); test: Mnk2(h) Kinase panel; details: Compound concentration 1.0 uM, tested as the 2H-labelled form
[23] = target: Serine/threonine-protein kinase MRCK alpha (Homo sapiens) (UniProt Q5VT25); test: MRCKalpha(h) Kinase panel; details: Compound concentration 1.0 uM, tested as the 2H-labelled form
[24] = target: Serine/threonine-protein kinase MRCK gamma (Homo sapiens) (UniProt Q6DT37); test: MRCKgamma(h) Kinase panel; details: Compound concentration 1.0 uM, tested as the 2H-labelled form
[25] = target: Ribosomal protein S6 kinase alpha-5 (Homo sapiens) (UniProt O75582); test: MSK1(h) Kinase panel; details: Compound concentration 1.0 uM, tested as the 2H-labelled form
[26] = target: Muscle, skeletal receptor tyrosine-protein kinase (Homo sapiens) (UniProt O15146); test: MuSK(h) Kinase panel; details: Compound concentration 1.0 uM, tested as the 2H-labelled form
[27] = target: Myosin-IIIb (Homo sapiens) (UniProt Q8WXR4); test: MYO3B(h) Kinase panel; details: Compound concentration 1.0 uM, tested as the 2H-labelled form
[28] = target: Serine/threonine-protein kinase Nek1 (Homo sapiens) (UniProt Q96PY6); test: NEK1(h) Kinase panel; details: Compound concentration 1.0 uM, tested as the 2H-labelled form
[29] = target: Serine/threonine-protein kinase pim-2 (Homo sapiens) (UniProt Q9P1W9); test: Pim-2(h) Kinase panel; details: Compound concentration 1.0 uM, tested as the 2H-labelled form
[30] = target: cAMP-dependent protein kinase catalytic subunit alpha (Homo sapiens) (UniProt P17612); test: PKA(h) Kinase panel; details: Compound concentration 1.0 uM, tested as the 2H-labelled form
[31] = target: cGMP-dependent protein kinase 1 (Homo sapiens) (UniProt Q13976); test: PKG1alpha (h) Kinase panel; details: Compound concentration 1.0 uM, tested as the 2H-labelled form
[32] = target: cGMP-dependent protein kinase 2 (Homo sapiens) (UniProt Q13237); test: PRKG2(h) Kinase panel; details: Compound concentration 1.0 uM, tested as the 2H-labelled form
[33] = target: Tyrosine-protein kinase FRK (Homo sapiens) (UniProt P42685); test: PTK5(h) Kinase panel; details: Compound concentration 1.0 uM, tested as the 2H-labelled form
[34] = target: Proto-oncogene tyrosine-protein kinase receptor Ret (Homo sapiens) (UniProt P07949); test: Ret(h) Kinase panel; details: Compound concentration 1.0 uM, tested as the 2H-labelled form
[35] = target: Receptor-interacting serine/threonine-protein kinase 2 (Homo sapiens) (UniProt O43353); test: RIPK2(h) Kinase panel; details: Compound concentration 1.0 uM, tested as the 2H-labelled form
[36] = target: Macrophage-stimulating protein receptor (Homo sapiens) (UniProt Q04912); test: Ron(h) Kinase panel; details: Compound concentration 1.0 uM, tested as the 2H-labelled form
[37] = target: Proto-oncogene tyrosine-protein kinase ROS (Homo sapiens) (UniProt P08922); test: Ros(h) Kinase panel; details: Compound concentration 1.0 uM, tested as the 2H-labelled form
[38] = target: Mitogen-activated protein kinase 11 (Homo sapiens, UniProt Q15759); test: SAPK2b(h) Kinase panel; details: Compound concentration 1.0 uM, tested as the 2H-labelled form
[39] = target: Serine/threonine-protein kinase SIK2 (Homo sapiens) (UniProt Q9H0K1); test: SIK2(h) Kinase panel; details: Compound concentration 1.0 uM, tested as the 2H-labelled form
[40] = target: Serine/threonine-protein kinase SIK3 (Homo sapiens) (UniProt Q9Y2K2); test: SIK3(h) Kinase panel; details: Compound concentration 1.0 uM, tested as the 2H-labelled form
[41] = target: Serine/threonine-protein kinase TAO1 (Homo sapiens) (UniProt Q7L7X3); test: TAO1(h) Kinase panel; details: Compound concentration 1.0 uM, tested as the 2H-labelled form
[42] = target: Serine/threonine-protein kinase TAO3 (Homo sapiens) (UniProt Q9H2K8); test: TAO3(h) Kinase panel; details: Compound concentration 1.0 uM, tested as the 2H-labelled form
[43] = target: Serine/threonine-protein kinase tousled-like 1 (Homo sapiens) (UniProt Q9UKI8); test: TLK1(h) Kinase panel; details: Compound concentration 1.0 uM, tested as the 2H-labelled form
[44] = target: Non-receptor tyrosine-protein kinase TYK2 (Homo sapiens) (UniProt P29597); test: TYK2(h) Kinase panel; details: Compound concentration 1.0 uM, tested as the 2H-labelled form
[45] = target: Serine/threonine-protein kinase ULK3 (Homo sapiens) (UniProt Q6PHR2); test: ULK3(h) Kinase panel; details: Compound concentration 1.0 uM, tested as the 2H-labelled form
[46] = target: Serine/threonine-protein kinase WNK1 (Homo sapiens) (UniProt Q9H4A3); test: WNK1(h) Kinase panel; details: Compound concentration 1.0 uM, tested as the 2H-labelled form
[47] = target: Serine/threonine-protein kinase WNK2 (Homo sapiens) (UniProt Q9Y3S1); test: WNK2(h) Kinase panel; details: Compound concentration 1.0 uM, tested as the 2H-labelled form
[48] = target: Tyrosine-protein kinase ZAP-70 (Homo sapiens) (UniProt P43403); test: ZAP-70(h) Kinase panel; details: Compound concentration 1.0 uM, tested as the 2H-labelled form
[49] = target: Serine-protein kinase ATM (Homo sapiens) (UniProt Q13315); test: ATM(h) Kinase panel; details: Compound concentration 1.0 uM, tested as the 2H-labelled form
[50] = target: Phosphatidylinositol 5-phosphate 4-kinase type-2 alpha (Homo sapiens) (UniProt P48426); test: PIP4K2a(h) Kinase panel; details: Compound concentration 1.0 uM, tested as the 2H-labelled form
[51] = target: Kappa-type opioid receptor (Homo sapiens) (UniProt P41145); details: Compound concentration 10.0 uM, tested as the 2H-labelled form
[52] = target: Muscarinic acetylcholine receptor M4 (Homo sapiens) (UniProt P08173); details: Compound concentration 10.0 uM, tested as the 2H-labelled form

Sequence of Serine/threonine-protein kinase 17A (Homo sapiens) (Q9UEE5 whole entry): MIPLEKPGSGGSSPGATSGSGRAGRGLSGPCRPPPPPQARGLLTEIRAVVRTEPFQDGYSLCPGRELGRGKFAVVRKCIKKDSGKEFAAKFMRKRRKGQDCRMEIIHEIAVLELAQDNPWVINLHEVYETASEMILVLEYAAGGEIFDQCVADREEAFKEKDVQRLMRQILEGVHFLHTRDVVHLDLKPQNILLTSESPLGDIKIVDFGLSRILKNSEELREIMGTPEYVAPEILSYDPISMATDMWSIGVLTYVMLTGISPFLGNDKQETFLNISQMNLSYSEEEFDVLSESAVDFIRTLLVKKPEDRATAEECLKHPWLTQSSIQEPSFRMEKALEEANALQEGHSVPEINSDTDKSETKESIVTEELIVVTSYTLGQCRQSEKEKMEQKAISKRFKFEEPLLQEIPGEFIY
Sequence of Serine/threonine-protein kinase WNK1 (Homo sapiens) (Q9H4A3 whole entry, looked up): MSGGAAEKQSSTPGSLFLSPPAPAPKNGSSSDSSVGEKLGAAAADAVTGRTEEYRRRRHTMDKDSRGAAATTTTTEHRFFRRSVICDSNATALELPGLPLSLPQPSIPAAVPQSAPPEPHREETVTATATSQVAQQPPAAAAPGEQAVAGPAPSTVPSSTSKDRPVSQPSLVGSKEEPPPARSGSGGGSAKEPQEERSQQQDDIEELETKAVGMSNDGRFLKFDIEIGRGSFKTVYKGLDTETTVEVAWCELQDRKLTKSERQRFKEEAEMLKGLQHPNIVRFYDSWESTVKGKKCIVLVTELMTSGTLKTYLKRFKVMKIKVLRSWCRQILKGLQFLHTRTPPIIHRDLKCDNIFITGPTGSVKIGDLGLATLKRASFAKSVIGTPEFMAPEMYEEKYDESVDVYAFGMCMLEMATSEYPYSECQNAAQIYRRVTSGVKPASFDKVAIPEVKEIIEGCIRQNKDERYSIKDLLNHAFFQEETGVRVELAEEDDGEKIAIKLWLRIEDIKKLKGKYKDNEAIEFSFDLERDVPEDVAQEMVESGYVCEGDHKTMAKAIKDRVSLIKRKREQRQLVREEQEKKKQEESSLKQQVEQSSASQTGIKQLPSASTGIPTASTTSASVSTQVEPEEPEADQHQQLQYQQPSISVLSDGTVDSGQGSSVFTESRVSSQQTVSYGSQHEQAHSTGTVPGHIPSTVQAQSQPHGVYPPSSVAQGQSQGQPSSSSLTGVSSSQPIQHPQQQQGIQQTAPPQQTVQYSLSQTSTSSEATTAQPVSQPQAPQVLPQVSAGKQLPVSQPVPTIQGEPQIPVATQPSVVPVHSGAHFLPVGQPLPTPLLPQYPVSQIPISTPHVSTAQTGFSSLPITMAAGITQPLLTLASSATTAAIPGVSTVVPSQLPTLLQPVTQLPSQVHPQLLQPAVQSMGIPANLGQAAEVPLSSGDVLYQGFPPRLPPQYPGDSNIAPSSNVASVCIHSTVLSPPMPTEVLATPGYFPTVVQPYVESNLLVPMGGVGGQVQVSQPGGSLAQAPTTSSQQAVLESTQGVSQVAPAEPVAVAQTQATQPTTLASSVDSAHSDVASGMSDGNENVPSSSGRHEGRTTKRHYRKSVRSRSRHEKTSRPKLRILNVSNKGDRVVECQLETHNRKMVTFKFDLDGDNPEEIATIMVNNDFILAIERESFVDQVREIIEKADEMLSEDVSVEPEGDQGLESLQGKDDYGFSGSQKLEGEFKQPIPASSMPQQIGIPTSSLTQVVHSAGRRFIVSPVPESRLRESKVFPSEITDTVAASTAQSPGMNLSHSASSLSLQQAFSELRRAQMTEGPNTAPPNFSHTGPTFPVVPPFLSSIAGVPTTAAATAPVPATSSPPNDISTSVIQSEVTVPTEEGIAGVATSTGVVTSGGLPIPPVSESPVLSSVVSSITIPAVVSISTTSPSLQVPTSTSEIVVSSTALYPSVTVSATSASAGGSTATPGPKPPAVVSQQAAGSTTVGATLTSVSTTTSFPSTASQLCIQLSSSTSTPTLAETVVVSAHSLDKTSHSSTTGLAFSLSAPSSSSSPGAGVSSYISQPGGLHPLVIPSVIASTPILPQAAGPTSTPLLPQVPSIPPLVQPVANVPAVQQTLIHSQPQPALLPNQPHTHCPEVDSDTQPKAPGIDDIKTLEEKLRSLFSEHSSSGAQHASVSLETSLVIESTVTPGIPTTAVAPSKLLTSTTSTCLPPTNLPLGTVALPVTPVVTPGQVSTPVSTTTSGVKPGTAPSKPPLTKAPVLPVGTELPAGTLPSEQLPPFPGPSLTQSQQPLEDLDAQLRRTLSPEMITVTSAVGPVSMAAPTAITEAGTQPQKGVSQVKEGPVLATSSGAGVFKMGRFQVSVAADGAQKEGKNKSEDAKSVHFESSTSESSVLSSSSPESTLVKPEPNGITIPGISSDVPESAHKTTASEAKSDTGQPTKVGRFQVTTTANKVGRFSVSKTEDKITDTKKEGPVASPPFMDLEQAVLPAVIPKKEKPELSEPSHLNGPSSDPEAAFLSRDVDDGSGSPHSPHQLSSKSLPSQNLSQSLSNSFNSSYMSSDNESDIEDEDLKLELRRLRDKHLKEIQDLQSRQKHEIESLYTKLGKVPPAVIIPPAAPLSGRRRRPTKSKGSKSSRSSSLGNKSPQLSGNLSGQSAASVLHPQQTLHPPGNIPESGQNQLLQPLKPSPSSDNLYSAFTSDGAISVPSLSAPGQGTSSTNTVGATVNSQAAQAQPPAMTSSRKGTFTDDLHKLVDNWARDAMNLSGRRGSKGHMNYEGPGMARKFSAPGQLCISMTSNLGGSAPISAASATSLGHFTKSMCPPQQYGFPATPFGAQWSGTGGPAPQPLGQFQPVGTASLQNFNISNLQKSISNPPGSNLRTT
Sequence of Mitogen-activated protein kinase 11 (Q15759 whole entry): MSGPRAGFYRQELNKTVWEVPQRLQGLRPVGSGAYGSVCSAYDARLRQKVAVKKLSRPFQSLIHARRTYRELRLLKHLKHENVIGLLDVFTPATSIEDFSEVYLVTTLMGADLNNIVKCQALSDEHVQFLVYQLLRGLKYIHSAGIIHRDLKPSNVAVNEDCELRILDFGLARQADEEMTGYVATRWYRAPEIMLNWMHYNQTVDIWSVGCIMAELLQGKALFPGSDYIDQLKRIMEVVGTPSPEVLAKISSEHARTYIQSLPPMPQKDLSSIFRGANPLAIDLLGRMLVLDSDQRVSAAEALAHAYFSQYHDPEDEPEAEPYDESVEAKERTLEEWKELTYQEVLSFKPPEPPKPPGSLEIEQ
Sequence of Serine/threonine-protein kinase tousled-like 1 (Homo sapiens) (Q9UKI8 whole entry): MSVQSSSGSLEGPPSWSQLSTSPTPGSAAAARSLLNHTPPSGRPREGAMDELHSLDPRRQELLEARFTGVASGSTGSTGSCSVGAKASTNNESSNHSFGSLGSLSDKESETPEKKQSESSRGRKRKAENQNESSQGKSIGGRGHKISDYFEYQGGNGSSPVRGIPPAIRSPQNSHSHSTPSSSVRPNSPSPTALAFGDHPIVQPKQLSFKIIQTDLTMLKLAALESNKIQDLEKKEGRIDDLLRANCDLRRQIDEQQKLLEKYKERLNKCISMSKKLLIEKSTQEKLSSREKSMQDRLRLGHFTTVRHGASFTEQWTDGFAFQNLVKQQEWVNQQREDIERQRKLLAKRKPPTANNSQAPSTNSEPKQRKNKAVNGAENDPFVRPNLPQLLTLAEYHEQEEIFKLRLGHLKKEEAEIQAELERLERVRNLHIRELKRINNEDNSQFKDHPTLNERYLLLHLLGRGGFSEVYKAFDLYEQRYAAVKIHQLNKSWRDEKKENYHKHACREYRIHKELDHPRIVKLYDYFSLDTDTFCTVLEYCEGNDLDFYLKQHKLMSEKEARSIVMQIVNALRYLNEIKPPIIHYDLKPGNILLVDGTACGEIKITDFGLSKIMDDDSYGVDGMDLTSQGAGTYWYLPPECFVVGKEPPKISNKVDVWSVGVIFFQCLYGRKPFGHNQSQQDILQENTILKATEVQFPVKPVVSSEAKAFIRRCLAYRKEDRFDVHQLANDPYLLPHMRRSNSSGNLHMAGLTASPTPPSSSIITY
Sequence of Tyrosine-protein kinase Fes/Fps (Homo sapiens) (P07332 whole entry): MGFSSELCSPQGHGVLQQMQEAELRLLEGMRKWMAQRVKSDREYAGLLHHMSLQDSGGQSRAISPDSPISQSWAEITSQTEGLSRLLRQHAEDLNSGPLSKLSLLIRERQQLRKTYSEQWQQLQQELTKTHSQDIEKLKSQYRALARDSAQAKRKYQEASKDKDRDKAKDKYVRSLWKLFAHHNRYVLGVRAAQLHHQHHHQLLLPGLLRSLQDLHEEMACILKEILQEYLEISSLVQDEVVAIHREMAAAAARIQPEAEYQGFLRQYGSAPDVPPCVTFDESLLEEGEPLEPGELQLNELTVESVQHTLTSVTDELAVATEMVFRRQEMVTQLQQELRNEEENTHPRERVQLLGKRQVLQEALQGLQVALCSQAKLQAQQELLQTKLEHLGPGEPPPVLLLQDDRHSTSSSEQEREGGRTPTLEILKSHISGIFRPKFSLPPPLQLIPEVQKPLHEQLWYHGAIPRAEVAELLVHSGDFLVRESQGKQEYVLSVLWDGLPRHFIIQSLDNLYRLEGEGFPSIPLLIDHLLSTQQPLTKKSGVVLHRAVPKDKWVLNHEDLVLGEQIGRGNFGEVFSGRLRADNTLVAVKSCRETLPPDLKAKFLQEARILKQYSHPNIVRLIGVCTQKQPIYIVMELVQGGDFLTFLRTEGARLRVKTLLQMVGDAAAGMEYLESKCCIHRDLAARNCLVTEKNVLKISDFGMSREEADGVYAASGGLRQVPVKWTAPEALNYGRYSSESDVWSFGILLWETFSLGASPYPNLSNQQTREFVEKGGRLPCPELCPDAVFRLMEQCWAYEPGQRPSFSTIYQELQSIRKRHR
Sequence of Serine/threonine-protein kinase pim-2 (Homo sapiens) (Q9P1W9 whole entry, looked up): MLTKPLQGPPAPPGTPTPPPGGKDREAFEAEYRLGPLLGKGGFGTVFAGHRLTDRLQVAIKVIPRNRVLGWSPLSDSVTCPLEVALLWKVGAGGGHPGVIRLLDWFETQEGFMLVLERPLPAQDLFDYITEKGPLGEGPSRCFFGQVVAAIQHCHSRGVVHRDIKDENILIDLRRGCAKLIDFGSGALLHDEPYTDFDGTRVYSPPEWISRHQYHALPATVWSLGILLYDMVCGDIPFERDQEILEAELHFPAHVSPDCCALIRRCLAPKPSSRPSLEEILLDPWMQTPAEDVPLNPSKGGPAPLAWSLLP

- inhibition [1]: 5%
- inhibition [2]: 7%
- inhibition [3]: -6%
- inhibition [4]: 4%
- inhibition [5]: -6%
- inhibition [6]: 73%
- inhibition [7]: 12%
- inhibition [8]: 15%
- inhibition [9]: 14%
- inhibition [10]: 0%
- inhibition [11]: 0%
- inhibition [12]: 3%
- inhibition [13]: 3%
- inhibition [14]: 20%
- inhibition [15]: 14%
- inhibition [16]: 0%
- inhibition [17]: -9%
- inhibition [18]: 9%
- inhibition [19]: 9%
- inhibition [20]: -3%
- inhibition [21]: 5%
- inhibition [22]: 20%
- inhibition [23]: 6%
- inhibition [24]: 3%
- inhibition [25]: 8%
- inhibition [26]: -7%
- inhibition [27]: 12%
- inhibition [28]: 5%
- inhibition [29]: -4%
- inhibition [30]: 16%
- inhibition [31]: -9%
- inhibition [32]: 11%
- inhibition [33]: 11%
- inhibition [34]: 14%
- inhibition [35]: 2%
- inhibition [36]: 13%
- inhibition [37]: -2%
- inhibition [38]: -3%
- inhibition [39]: 0%
- inhibition [40]: -1%
- inhibition [41]: -5%
- inhibition [42]: 5%
- inhibition [43]: 6%
- inhibition [44]: -5%
- inhibition [45]: 12%
- inhibition [46]: 7%
- inhibition [47]: 8%
- inhibition [48]: 12%
- inhibition [49]: 3%
- inhibition [50]: 0%
- inhibition [51]: 12%
- inhibition [52]: 1.83%
SMILES: CC1(C)Cn2nc(-c3ccc(F)cn3)c(-c3ccnc4[nH]ncc34)c2CO1

— ChEMBL document CHEMBL5058645, “Data for DCP probe JNJ-6204” (2022)
